Laboratory results published in US20230303552A1, “ARYLSULFONYL DERIVATIVES AND THEIR USE AS MUSCARINIC ACETYLCHOLINE RECEPTOR M5 INHIBITORS” (Vanderbilt University, priority 2020, published 2023).

Target: T1, human M5 receptors (hM5) (Homo sapiens, UniProt P08912)
T1 construct: expressed in transfected cells
T1 sequence (P08912 1-532): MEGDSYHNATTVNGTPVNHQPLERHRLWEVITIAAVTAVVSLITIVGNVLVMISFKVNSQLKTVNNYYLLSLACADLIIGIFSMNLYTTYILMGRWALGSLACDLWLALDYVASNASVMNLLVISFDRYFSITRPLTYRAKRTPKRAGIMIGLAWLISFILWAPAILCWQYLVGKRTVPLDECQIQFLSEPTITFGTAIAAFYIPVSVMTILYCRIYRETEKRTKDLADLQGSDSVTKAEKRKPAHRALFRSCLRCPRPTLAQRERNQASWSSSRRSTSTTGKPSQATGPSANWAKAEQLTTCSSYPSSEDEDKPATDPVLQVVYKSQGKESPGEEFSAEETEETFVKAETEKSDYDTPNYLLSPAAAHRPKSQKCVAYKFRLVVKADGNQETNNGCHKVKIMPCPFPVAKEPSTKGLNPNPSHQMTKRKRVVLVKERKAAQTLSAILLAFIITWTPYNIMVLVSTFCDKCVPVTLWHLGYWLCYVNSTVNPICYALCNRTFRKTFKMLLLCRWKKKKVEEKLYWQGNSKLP
Assay: Cell-based functional calcium mobilization assay of mAChR M5 activity (inhibition of EC80 acetylcholine response) in CHO cells
Conditions: CHO cells stably expressing hM5; for IC50: calcium flux (Fluo-4), EC80 acetylcholine addition; for EC80 MIN: minimum of EC80 acetylcholine response, normalized to maximum acetylcholine response
Method: All functional cell-based assays were performed essentially as previously described (Marlo et al., Mol.Pharm. 2009, 75(3), 577-588; Brady et al., J. Pharm. & Exp. Ther. 2008, 327, 941-953). Initial, single point (10 µM) competitive and non-competitive inhibitor characterization was performed in stable Chinese Hamster Ovary (CHO) cell lines constitutively expressing human M5 receptors. These were plated at 15,000 cells per 20 µL per well in Greiner 384-well black-walled, TC-treated, clear-bottomed plates (Fisher) in Ham’s F12 medium supplemented with 10% FBS and 20 mM HEPES. Cells were incubated overnight at 37° C. under 5% CO2. The following day, medium was exchanged with assay buffer (Hank’s Balanced Salt Solution supplemented with 20 mM HEPES and 2.5 mM Probenecid, pH 7.4) leaving 20 µL of assay buffer in each well. This was followed by the addition of 20 µL of 2.3 µM of Fluo-4 AM (Invitrogen) in assay buffer (final concentration 1.15 µM). The cells were then incubated 50 minutes at 37° C. under 5% CO2. The assay buffer plus dye was then exchanged with fresh assay buffer leaving a volume of 20 µL in each well. Test compounds were diluted into assay buffer to a 2X (20 µM) concentration in 0.2% dimethylsulfoxide (DMSO) in columns 3 - 22 with matching DMSO concentration in columns 1, 2, 23, and […]; compounds were added to the assay for a final concentration of 10 µM and a final DMSO concentration of 0.1%. Acetylcholine (Sigma-Aldrich) was prepared to provide 5X concentrations of EC20, EC80, and ECmax in the triple-addition assay, providing a signal window to view agonism, potentiation, and inhibition of the acetylcholine response as well as a means to normalize to the maximum acetylcholine response.
Either an FDSS (Hamamatsu) or Panoptic (WaveFront Biosciences) kinetic imaging plate reader was used for assay execution and measurement of calcium flux. After establishing baseline fluorescence, test compounds (20 µL) were added to the cells using the reader’s integrated pipettor and allowed to equilibrate for 140 seconds before addition of the EC20 concentration of acetylcholine (10 µL) along with vehicle in selected DMSO-only wells in the outer two columns. The EC80 concentration of acetylcholine (10 µL) was added 125 seconds after the EC20 addition along with ECmax concentration in the wells receiving vehicle in the second addition. The raw fluorescence data from each well was normalized to the corresponding initial fluorescence reading (static ratio). The maximum fluorescence value following each addition was determined and the minimum value within that same timeframe was subtracted for each well then normalized to the average of the ECmax maximum-minimum response, providing a %AChmax value for each addition for each well. The single point values represent mean values determined within the EC80 addition timeframe obtained from at least three independent determinations performed in triplicate or greater (error bars represent +/- SEM) unless otherwise specified.
Further characterization of competitive and non-competitive inhibitor compounds (compound potency and mAChR subtype-selectivity) was performed on the FDSS with calcium mobilization assays performed as previously described (Marlo et al., 2009; Brady et al., 2008) and in a format similar to that described above using the same reagents. CHO cells stably expressing hM1, hM2/Gqi5, hM3, hM4/Gqi5, hM5, rM1, rM2/Gqi5, rM3, rM4/Gqi5, or rMs were plated in the manner described above. A ten-point concentration range of test compound was serial diluted in assay buffer to 2X final concentration and acetylcholine was diluted in assay buffer to 5X of the EC20 and EC80 concentrations, determined empirically and 5X maximal (2 mM final concentration) stock concentrations. FDSS protocols were carried out as described above; the static ratio was calculated and the minimum response subtracted from the maximum response within the timeframe of each addition. […]

| SMILES | IC50 [nM] | EC80 MIN [%] |
| --- | --- | --- |
| CC1COc2ccc(S(=O)(=O)N3CCC(C(=O)Nc4ccc5scnc5c4)CC3)cc21 (racemic) [Compound 131, (rac)-N-(benzo[d]thiazol-5-yl)-1-((3-methyl-2,3-dihydrobenzofuran-5-yl)sulfonyl)piperidine-4-carboxamide] | 109 | 3 |
| C[C@@H]1C[C@@H](C(=O)Nc2ccc3scnc3c2)CCN1S(=O)(=O)c1ccc2ncsc2c1 (racemic) [Compound 134, trans-(rac)-N-(benzo[d]thiazol-5-yl)-1-(benzo[d]thiazol-6-ylsulfonyl)-2-methylpiperidine-4-carboxamide] | 580 | 3 |
| Cc1cc2c(cc1S(=O)(=O)N1CCC(C(=O)Nc3ccc4scnc4c3)CC1)C(C)CO2 (racemic) [Compound 145, (rac)-N-(benzo[d]thiazol-5-yl)-1-((3,6-dimethyl-2,3-dihydrobenzofuran-5-yl)sulfonyl)piperidine-a-carboxamide] | 1370 | 3 |
| Cn1ncc(S(=O)(=O)N2CC[C@H](C(=O)Nc3ccc4scnc4c3)[C@@H](F)C2)c1Cl (racemic) [Compound 159, trans-(rac)-N-(benzo[d]thiazol-5-yl)-1-((5-chloro-1-methyl-1H-pyrazol-4-yl)sulfonyl)-3-fluoropiperidine-4-carboxamide] | 10 | 2 |
| Cc1ncc(S(=O)(=O)N2CC[C@H](C(=O)Nc3ccc4scnc4c3)[C@@H](F)C2)s1 (racemic) [Compound 160, trans-(rac)-N-(benzo[d]thiazol-5-yl)-3-fluoro-1-((2-methylthiazol-5-yl)sulfonyl)piperidine-4-carboxamide] | 13 | 2 |
| O=C(Nc1ccc2scnc2c1)C1CCN(S(=O)(=O)c2ccc(Cl)s2)CC1 [Compound 1, N-(benzo[d]thiazol-5-yl)-1-((5-chlorothiophen-2-yl)sulfonyl)piperidine-4-carboxamide] | 2740 | 3 |
| O=C(Nc1ccc2scnc2c1)C1CCN(S(=O)(=O)c2ccc3c(c2)CCO3)CC1 [Compound 2, N-(benzo[d]thiazol-5-yl)-1-((2,3-dihydrobenzofuran-5-yl)sulfonyl)piperidine-4-carboxamide] | 72 | 2 |
| O=C(Nc1ccc2scnc2c1)C1CCN(S(=O)(=O)c2ccc3ncsc3c2)CC1 [Compound 3, N-(benzo[d]thiazol-5-yl)-1-(benzo[d]thiazol-6-ylsulfonyl)piperidine-4-carboxamide] | 670 | 5 |
| O=C(Nc1ccc2scnc2c1)C1CCN(S(=O)(=O)c2ccc3ncccc3c2)CC1 [Compound 4, N-(benzo[d]thiazol-5-yl)-1-(quinolin-6-ylsulfonyl)piperidine-4-carboxamide] | 959 | 2 |
| Cc1nn(C)cc1S(=O)(=O)N1CCC(C(=O)Nc2ccc3scnc3c2)CC1 [Compound 5, N-(benzo[d]thiazol-5-yl)-1-((1,3-dimethyl-1H-pyrazol-4-yl)sulfonyl)piperidine-4-carboxamide] | 304 | 2 |
| O=C(Nc1ccc2scnc2c1)C1CCN(S(=O)(=O)c2ccc(Cl)nc2)CC1 [Compound 7, N-(benzo[d]thiazol-5-yl)-1-((6-chloropyridin-3-yl)sulfonyl)piperidine-4-carboxamide] | 184 | 4 |
| O=C(Nc1ccc2scnc2c1)C1CCN(S(=O)(=O)c2ccsc2)CC1 [Compound 8, N-(benzo[d]thiazol-5-yl)-1-(thiophen-3-ylsulfonyl)piperidine-4-carboxamide] | > 10000 | 23 |
| N#Cc1cc(S(=O)(=O)N2CCC(C(=O)Nc3ccc4scnc4c3)CC2)ccc1Cl [Compound 9, N-(benzo[d]thiazol-5-yl)-1-((4-chloro-3-cyanophenyl)sulfonyl)piperidine-4-carboxamide] | > 10000 | 38 |
| COc1ccc(S(=O)(=O)N2CCC(C(=O)Nc3ccc4scnc4c3)CC2)cn1 [Compound 10, N-(benzo[d]thiazol-5-yl)-1-((6-methoxypyridin-3-yl)sulfonyl)piperidine-4-carboxamide] | 1320 | 3 |
| O=C(Nc1ccc2scnc2c1)C1CCN(S(=O)(=O)c2ccc(C(F)(F)F)nc2)CC1 [Compound 11, N-(benzo[d]thiazol-5-yl)-1-((6-(trifluoromethyl)pyridin-3-yl)sulfonyl)piperidine-4-carboxamide] | > 10000 | 52 |
| O=C(Nc1ccc2[nH]cnc2c1)C1CCN(S(=O)(=O)c2ccc3c(c2)CCO3)CC1 [Compound 13, N-(1H-benzo[d]imidazol-5-yl)-1-((2,3-dihydrobenzofuran-5-yl)sulfonyl)piperidine-4-carboxamide] | > 10000 | 22 |
| O=C(Nc1ccc2scnc2c1)C1CN(S(=O)(=O)c2ccc3c(c2)CCO3)C1 [Compound 16, N-(benzo[d]thiazol-5-yl)-1-((2,3-dihydrobenzofuran-5-yl)sulfonyl)azetidine-3-carboxamide] | 1780 | 2 |
| Cc1noc(C)c1S(=O)(=O)N1CCC(C(=O)Nc2ccc3scnc3c2)CC1 [Compound 17, N-(benzo[d]thiazol-5-yl)-1-((3.5-dimcthylisoxazol-4-yl)sulfonyl)piperidine-4-carboxamide] | 766 | 3 |
| O=C(Nc1ccc2scnc2c1)C1CCN(S(=O)(=O)c2cccnc2)CC1 [Compound 18, N-(benzo[d]thiazol-5-yl)-1-(pyridin-3-ylsulfonyl)piperidine-4-carboxamide] | 56 | 2 |
| Cc1nc(C(F)(F)F)c(S(=O)(=O)N2CCC(C(=O)Nc3ccc4scnc4c3)CC2)s1 [Compound 19, N-(benzo[d]thiazol-5-yl)-1-((2-methyl-4-(trifluoromcthyl)thiazol-5-yl)sulfonyl)piperidine-4-carboxamide] | 3130 | 19 |
| Cn1cnc(S(=O)(=O)N2CCC(C(=O)Nc3ccc4scnc4c3)CC2)c1 [Compound 20, N-(benzo[d]thiazol-5-yl)-1-((1-methyl-1H-imidazol-4-yl)sulfonyl)piperidine-4-carboxamide] | > 10000 | 49 |
| O=C(Nc1ccc2scnc2c1)C1CCN(S(=O)(=O)c2cccc3nsnc23)CC1 [Compound 21, 1-(benzo[c][1,2,5]thiadiazol-4-ylsulfonyl)-N-(benzo[d]thiazol-5-yl)piperidine-4-carboxamide] | 434 | 3 |
| CC1(C(=O)Nc2ccc3scnc3c2)CN(S(=O)(=O)c2ccc3c(c2)CCO3)C1 [Compound 22, N-(benzo[d]thiazol-5-yl)-1-((2,3-dihydrobenzofuran-5-yl)sulfonyl)-3-methylazetidine-3-carboxamide] | > 10000 | 43 |
